Data set [1] concerns cytomegalovirus. The note with it: cited from earlier work; for treatment of cytomegalovirus retinitis: Rosecan et al. 1986 / reported.
In data set [2] the test system is human cytomegalovirus (strain AD 169). The data set is described as follows: Inhibition of human cytomegalovirus in MRC5 cells by plaque reduction assay (reduction of CPE, MIC50; Table 1). The data set is classed as cell-based. An excerpt: (§1) In each case, drug treatment began 0 hr. postinfection.
(Plaques are areas of infected cells; plaque reduction assays count them against a control.)

For data set [3] the test system is unchanged. Kind of data set: CMV yield in MRC5 cells (Table 1). The class given is cell-based.
Excerpt: as §1

Data set [4] concerns human diploid embryonic lung cells (MRC5). Kind of data set: Drug cytotoxicity (gross morphology) in MRC5 cells (Table 1). An excerpt: Also evaluated under the same conditions were prior art drugs Ara-A and ganciclovir (DHPG). In each case, drug treatment began 0 hr. postinfection.
For data set [5], the system named is HCMV. The data set is described as follows: Virus yield-reduction assay, combination with papaverine on HCMV replication in MRC5 cells (Table 3). The data set is classed as cell-based, human CMV. To be noted: (±)-2'-CDG 0. The source says:
The following results were obtained in testing mixtures of racemic 2'-CdG and papaverine under the same conditions:
Effect of Combination Treatment^a With Papaverine and
(±)-2'-CDG and on HCMV Replication in MRC5 Cells
(Virus Yield-Reduction Assay)
^a Drug treatment began immediately following the virus adsorption

Setting [6] is: 0.32 μg/ml, virus control 5.5 (DHPG 5.3).
The mark [7] stands for this setting: 1.0 μg/ml, virus control 5.5 (DHPG 5.3).
Where [8] appears, read: 3.2 μg/ml, virus control 5.5 (DHPG 5.3).
[9] abbreviates: 10 μg/ml, virus control 5.5 (DHPG 5.3).
The mark [10] stands for this setting: Human betaherpesvirus 5, MRC5, 0 h, read-out: Reduction (%) of CPE at Time of Harvest.

This is an account of results in patent US6080746A, “Methods and compositions for the prophylaxis and treatment of cytomegalovirus infections” (priority 1991, dated 2000).

≈ marks a conversion by molar mass, not a printed value. Read-outs that look alike come from different tables or passages of the source.

For the molecule alpha-interferon, the “treatment of cytomegalovirus retinitis” value in data set [1] is given as “unsuccessful”.
Take `Nc1nc(N)c2ncn([C@@H]3C[C@H](CO)[C@@H](O)[C@H]3O)c2n1` (relative stereo) [DAPR]: the IC50 (commonly the concentration that gives 50% inhibition) in data set [2] (Human betaherpesvirus 5, MRC5, tested under the same conditions as Table 1) worked out at 8.7 µg/mL (≈ 31 µM). The therapeutic index in data set [2] (tested under the same conditions as Table 1) was 40.
With `Nc1ncnc2c1ncn2[C@@H]1O[C@H](CO)[C@@H](O)[C@@H]1O` [Ara-A, reference compound], the “CMV Yield” value in data set [3] (setting [6]) is 5.2 log10 CCID50 /ml; in data set [3] (setting [7]) it was 4.9 log10 CCID50 /ml; in data set [3] (setting [8]), 4.7 log10 CCID50 /ml; in data set [3] (setting [9]), 3.4 log10 CCID50 /ml; in data set [3] (32 μg/ml, virus control 5.5 (DHPG 5.3)), 0.6 log10 CCID50 /ml; in data set [3] (100 μg/ml, virus control 5.5 (DHPG 5.3)), 0 log10 CCID50 /ml. Besides, the “Drug Cytotoxicity (gross morphology)” value in data set [4] (0.32 μg/ml), in data set [4] (1.0 μg/ml), in data set [4] (3.2 μg/ml) and in data set [4] (10 μg/ml) was 0 each time. For the same molecule, the inhibition at 0.32 µg/mL in data set [2] (setting [10]) was 0%. Besides, the inhibition at 1 µg/mL in data set [2] (setting [10]) came out at 0%. Further, the inhibition at 3.2 µg/mL in data set [2] (setting [10]) was 5%. In addition, in data set [2] (setting [10]), the inhibition at 10 µg/mL was 90%. Besides, the inhibition at 32 µg/mL in data set [2] (setting [10]) was over 95%. For the same molecule, in data set [2] (setting [10]), the inhibition at 100 µg/mL was 100%. The “treatment of cytomegalovirus retinitis” value in data set [1] is on record as “unsuccessful”.
`Nc1nc(N)c2ncn([C@@H]3C[C@H](CO)[C@@H](O)C3)c2n1` (relative stereo) [±C-2,6'-DAPdR]: the “CMV Yield” value in data set [3] (0.032 μg/ml, virus control 5.5) turned out to be 5.3 log10 CCID50 /ml; in data set [3] (0.1 μg/ml, virus control 5.5 (DHPG 5.3)), 5.0 log10 CCID50 /ml; in data set [3] (setting [6]) it was 4.0 log10 CCID50 /ml; in data set [3] (setting [7]) it was 3.4 log10 CCID50 /ml; in data set [3] (setting [8]), 0 log10 CCID50 /ml; in data set [3] (setting [9]), 0 log10 CCID50 /ml. For the same molecule, the “Drug Cytotoxicity (gross morphology)” value is given as 0 in data set [4] (0.032 μg/ml); 0 in data set [4] (0.1 μg/ml); 0 in data set [4] (0.32 μg/ml); 0 in data set [4] (1.0 μg/ml); “v. sl. toxic” in data set [4] (3.2 μg/ml); “sl. toxic” in data set [4] (10 μg/ml). The “Drug Cytotoxicity (gross morphology)” value in data set [4] (32 μg/ml) is “toxic”. Further, the inhibition at 0.032 µg/mL in data set [2] (Human betaherpesvirus 5, 0.032 μg/ml, MRC5, treatment 0 hr postinfection, read-out: Reduction (%) of CPE at Time of Harvest) is 0%. In addition, in data set [2] (Human betaherpesvirus 5, 0.1 μg/ml, MRC5, treatment 0 hr postinfection, read-out: Reduction (%) of CPE at Time of Harvest), the inhibition at 0.1 µg/mL came out at 0%. In addition, the inhibition at 0.32 µg/mL in data set [2] (Human betaherpesvirus 5, 0.32 μg/ml, MRC5, treatment 0 hr postinfection, read-out: Reduction (%) of CPE at Time of Harvest) is 25%. Also, the inhibition at 1 µg/mL in data set [2] (Human betaherpesvirus 5, 1.0 μg/ml, MRC5, treatment 0 hr postinfection, read-out: Reduction (%) of CPE at Time of Harvest) is 95%. The inhibition at 3.2 µg/mL in data set [2] (Human betaherpesvirus 5, 3.2 μg/ml, MRC5, treatment 0 hr postinfection, read-out: Reduction (%) of CPE at Time of Harvest) was found to be 100%. In data set [2] (Human betaherpesvirus 5, 10 μg/ml, MRC5, treatment 0 hr postinfection, read-out: Reduction (%) of CPE at Time of Harvest), the inhibition at 10 µg/mL turned out to be 100%.
For the molecule `Nc1nc2c(ncn2COCCO)c(=O)[nH]1` [acyclovir], the “activity against CMV retinitis” value in data set [1] (CMV retinitis, reported) was “ineffective”. In data set [1], the “treatment of cytomegalovirus retinitis” value was “unsuccessful”. The “activity against established systemic CMV infections” value in data set [1] (established systemic CMV infections, reported) is reported as “ineffective”.
As for `COc1ccc(Cc2nccc3cc(OC)c(OC)cc23)cc1OC` [Papaverine, reference compound], the “Reduction in CMV Yield” value in data set [5] (papaverine (DHPG) 1.0 μM) came out at 0 Log10 PFU/ML; in data set [5] (papaverine (DHPG) 3.2 μM) it was 0.2 Log10 PFU/ML; in data set [5] (papaverine (DHPG) 10.0 μM) it was 0.6 Log10 PFU/ML; in data set [5] (papaverine (DHPG) 32.0 μM), 1.4 Log10 PFU/ML.
